Assay results from patent US20030157040A1, “Use of ectoine or ectoine derivatives in cosmetic formulations” (Merck Patent GmbH, priority 1998, published 2003).
Values joined by “and” are separate entries in the source; they are usually repeats but may differ in a detail not shown here. Equal values may be shown once. “Also recorded” adds a separate entry of the source.

Tested on: organotypical skin equivalents (Skinethic)
Experiment: UV-induced formation of "sunburn cells" in organotypical skin equivalents
Format: cell-based
Settings: for Number of counted "sunburn cells" in individual sections of the UV-irradiated skin equivalents / Number of counted "sunburn cells", mean M of six sections: pretreatment 24 h with ectoin 4%; for Number of counted "sunburn cells" in individual sections of the UV-irradiated skin equivalents: individual section
Protocol: An investigation is carried-out to determine whether ectoin has an inhibiting action on the UV-induced formation of “sunburn cells” in organotypical skin equivalents.
The investigations are carried out in accordance with the method described in A. R. Young, ‘The sunburn cell’, Photodermatology 4 (1987) 127-134. The cells used are organotypical skin models. Skinethic® skin equivalents from Skinethic, Nice, France (Lot. No. PK 2 DT 07 99 022A 0603) are used. Ectoin is weighed in directly prior to the start of the test and dissolved in the use concentration of 4% in EBSS (Gibco BRL; Order No. 15015 044). The organotypical skin equivalents (Skinethic) are, depending on the treatment group, incubated for 24 hours with or without ectoin (4%) at 37° C. and 5% CO2. The two treatment groups are then subjected to UV irradiation (0, 30, 60, 100, 200, 300 mJ/cm^2 of UVB) using a sun simulator (SOL 500, Dr. Hönle). Following incubation for a further 24 hours at 37° C. and 5% CO2, all skin equivalents are prepared histologically and investigated for induced “sunburn cells”.

## CC1=N[C@H](C(=O)O)CCN1 [ectoin, (S)-1,4,5,6-tetrahydro-2-methyl-4-pyrimidine-carboxylic acid]
Irradiation 0 mJ/cm^2 UVB
  Number of counted "sunburn cells" in individual sections of the UV-irradiated skin equivalents: 0
Irradiation 0 mJ/cm^2 UVB, mean of six sections
  Number of counted "sunburn cells", mean M of six sections: 0.00
Irradiation 30 mJ/cm^2 UVB
  Number of counted "sunburn cells" in individual sections of the UV-irradiated skin equivalents: 1 (2×) and 2 (2×) and 3 and 0
Irradiation 30 mJ/cm^2 UVB, mean of six sections
  Number of counted "sunburn cells", mean M of six sections: 1.50
Irradiation 60 mJ/cm^2 UVB
  Number of counted "sunburn cells" in individual sections of the UV-irradiated skin equivalents: 2 (2×) and 4 and 3 (3×)
Irradiation 60 mJ/cm^2 UVB, mean of six sections (per section)
  Number of counted "sunburn cells", mean M of six sections: 2.83±0.75 and 2.83
Irradiation 100 mJ/cm^2 UVB
  Number of counted "sunburn cells" in individual sections of the UV-irradiated skin equivalents: 9 (2×) and 10 (2×) and 8 (2×)
Irradiation 100 mJ/cm^2 UVB, mean of six sections (per section)
  Number of counted "sunburn cells", mean M of six sections: 9±0.89 and 9.00
Irradiation 200 mJ/cm^2 UVB
  Number of counted "sunburn cells" in individual sections of the UV-irradiated skin equivalents: 39 (2×) and 32 (2×) and 35 and 34
Irradiation 200 mJ/cm^2 UVB, mean of six sections (per section)
  Number of counted "sunburn cells", mean M of six sections: 35.17±3.19 and 35.17
Irradiation 300 mJ/cm^2 UVB
  Number of counted "sunburn cells" in individual sections of the UV-irradiated skin equivalents: >100 (5×) and <100
Irradiation 300 mJ/cm^2 UVB, mean of six sections
  Number of counted "sunburn cells", mean M of six sections: >100
Pretreatment with ectoin versus no pretreatment, 0-300 mJ/cm^2 UVB
  dose-effect relationship between the rate of formation of SBCs and the administered UV dose: shifted significantly to higher UV dose ranges; also recorded: significantly into higher UV dose ranges
